The text below walks through data of patent publication US8530406B2, “HMG-CoA reductase derived peptide and cosmetic or pharmaceutical composition containing same” (ISP Investments Inc., priority 2008, dated 2013).

No end group written: not given here.

Common to all, as to type: cell-based
Test [1] has as its system normal human dermal fibroblasts. As to the kind of experiment: Ultrastructural study of caveolae in human fibroblasts. To be noted: 0.5 ppm peptide, 48 hours. How it is done: The goal of this study is to study at the ultrastructural level the caveolae in human dermal fibroblasts.
Normal human dermal fibroblasts in culture are treated with a 1% stock solution at 50 ppm of peptide SEQ ID No. 4 for 48 hours (the medium in the presence of the active ingredient is changed every 24 hours).

In test [2] the test system is HMG-CoA reductase. As to the kind of experiment: Expression of HMG-CoA reductase in normal human keratinocytes (immunofluorescence). To be noted: 0.5 ppm peptide, 48 hours. On the procedure: The goal of this study is to determine the influence of peptide SEQ ID No. 4 on the expression of HMG-CoA reductase in normal human keratinocytes.
Normal human dermal keratinocytes in culture are treated with a 1% stock solution at 50 ppm of peptide SEQ ID No. 4 for 48 hours (the medium in the presence of the active ingredient is changed every 24 hours). The cells are then washed and fixed in cold methanol for 4 minutes at 4° C. The cells are incubated in the presence of a polyclonal rabbit antibody specific for HMG-CoA reductase (Millipore, Upstate), and then a secondary antibody coupled with a fluorescent dye. The cells are then examined by epifluorescence microscope (Nikon Eclipse E600 microscope).

The subject of test [3] is normal human keratinocytes. As to the kind of experiment: Differentiation study of human keratinocytes (pankeratin immunofluorescence). The settings on record: 0.5 ppm peptide, 48 hours, epifluorescence. On the procedure:
The goal of this study is to determine the influence of peptide SEQ ID No. 5 on epidermal differentiation.
Normal human keratinocytes in culture are treated with a 1% stock solution at 50 ppm of peptide SEQ ID No. 4 for 48 hours (the medium in the presence of the active ingredient is changed every 24 hours). The cells are then washed and fixed with cold methanol for 4 minutes at 4° C.

Test [4] has as its system normal human keratinocytes. As to the kind of experiment: Ultrastructural study (transmission electron microscopy) of lamellar bodies in human keratinocytes. The settings on record: 0.5 ppm peptide. How it is done:
The goal of this study is to study in an ultrastructural manner, in transmission electron microscopy, keratinocytes treated by peptide SEQ ID No. 5 at 0.5 ppm.
Normal human keratinocytes in culture are treated with a 1% stock solution at 50 ppm of peptide SEQ ID No. 5 for 48 hours (the medium in the presence of the active ingredient is changed every 24 hours). The cells are washed in PBS, and then are fixed by Karnosky hypertonic fixation (4% paraformaldehyde, 5% glutaraldehyde in a 0.08M phosphate buffer) 1 hour at ambient temperature and then 24 hours at 4° C. The cells are detached from the support by scraping and centrifuged 5 minutes at 1000 rpm. The supernatant is eliminated and a 1M sodium cacodylate buffer is deposited on the residue. The cells are mixed with 2% agar and then postfixed by osmium tetraoxide for 1 hour. The specimens are then dehydrated by successive passages in a series of alcohol (from 50 to 100%). The cells are then coated in a resin. The polymerization is carried out for approximately 12 hours at 60° C. Semi-thin sections of 0.5 μm are made with an ultramicrotome. The sections are deposited on a heat bonded slide and then colored with toluidine blue. The slides are then dehydrated again and mounted in a suitable medium. After having chosen the optimal study zone, the block is recut to the desired size and ultrathin sections are then made, only sections with a silver-grey color and a suitable size are mounted on the electron microscopy grid labeled with both uranyl acetate and lead citrate, and are examined by transmission electron microscope at 60 or 80 KV.

Test [5] concerns HMG-CoA reductase. Description: Expression of HMG-CoA reductase in skin biopsies (immunolabelling). To be noted: 0.5 ppm peptide applied topically, human skin samples in culture, 24 hours or 48 hours. How it is done: The goal of this study is to determine the influence of peptide SEQ ID No. 5 on the expression of HMG-CoA reductase.
Samples of human skin are placed in culture at the air/liquid interface. A 1% stock solution at 50 ppm of peptide SEQ ID No. 5 is applied topically and then the samples are incubated for 24 hours or 48 hours.
These skin samples are then fixed with formaldehyde and then enclosed in paraffin. Sections of 2 to 3 μm are then made Immunolabelling is carried out after unmasking the specific sites by microwave treatment and then incubation in trypsin Immunolabelling is carried out by using a polyclonal rabbit antibody specific for HMG-CoA reductase (Millipore, Upstate), and then a secondary antibody, coupled with a fluorescent dye. The skin sections are then examined by epifluorescence microscope (Nikon Eclipse E600 microscope).

[6] abbreviates: 48 hours, transmission electron microscopy.

On to “Ala-Gly-Glu-Leu-Ser (AGELS) [SEQ ID No. 4]”, for which, in test [1], the “caveolae versus untreated control cells” value was “significant increase in caveolae”. The “HMG-CoA reductase cytoplasmic fluorescence” value in the test on HMG-CoA reductase [2] was “more intense cytoplasmic fluorescence”.

In the case of “Ala-Gly-Glu-Leu-Ser-NH2 (AGELS-NH2) [SEQ ID No. 5]”, the expression of pankeratins result in test [3] is listed as “increases the expression of pankeratins”. Besides, in test [4] (setting [6]), the “Golgi complex development versus control cells” value is “substantially more developed” and the “production of lamellar bodies (Odland bodies)” value is on record as “excess production of lamellar bodies”. Also, the lipid synthesis result in test [4] (inferred from ultrastructure) is reported as “increase in lipid synthesis”. Moreover, in the test on HMG-CoA reductase [5], the “HMG-CoA reductase fluorescence in the upper layers of the epidermis versus untreated control” value is recorded as “stronger fluorescence”.
